Assay results: article PMC9005681, “Use of AD Informer Set compounds to explore validity of novel targets in Alzheimer's disease pathology” (Alzheimer's & Dementia : Translational Research & Clinical …, 2022)
“And” between values parts separate entries of the source, which are not always exact repeats. Equal entries are not always repeated.

Tests used:
Test in all cases: PDSP GPCR panel primary binding assays at 10 μM
[1] = molecular target: T1, cloned human or rodent CNS receptors, channels, and transporters (PDSP panel) (Homo sapiens, UniProt P20309); settings: M3, primary assay; for Mean %: mean inhibition; for Inhibition 1: replicate 1; for Inhibition 2: replicate 2; for Inhibition 3: replicate 3; for Inhibition 4: replicate 4
T1 construct: expressed in transfected cells
T1 sequence (P20309 whole entry): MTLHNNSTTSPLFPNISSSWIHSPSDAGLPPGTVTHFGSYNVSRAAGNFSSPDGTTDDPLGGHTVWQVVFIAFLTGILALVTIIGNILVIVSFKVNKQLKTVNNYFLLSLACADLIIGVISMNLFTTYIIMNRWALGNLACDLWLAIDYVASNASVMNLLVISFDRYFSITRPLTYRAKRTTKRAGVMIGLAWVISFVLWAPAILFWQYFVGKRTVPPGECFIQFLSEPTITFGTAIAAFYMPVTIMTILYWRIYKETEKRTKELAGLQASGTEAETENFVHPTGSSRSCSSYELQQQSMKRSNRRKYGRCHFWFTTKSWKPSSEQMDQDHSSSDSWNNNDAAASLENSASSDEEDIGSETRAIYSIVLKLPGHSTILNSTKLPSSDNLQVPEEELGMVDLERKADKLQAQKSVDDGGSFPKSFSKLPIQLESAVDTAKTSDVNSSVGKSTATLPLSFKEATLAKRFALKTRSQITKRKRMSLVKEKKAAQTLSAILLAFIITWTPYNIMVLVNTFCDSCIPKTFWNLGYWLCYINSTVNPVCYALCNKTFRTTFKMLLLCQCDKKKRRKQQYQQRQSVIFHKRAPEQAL
Method in brief: (§1)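 Primary screen: 10 μM, quadruplicate, displacement of radio-labeled standard ligand. Hit cut-off >50% mean displacement → secondary 11-point dose-response, triplicate. H3, PBR, GABAA excluded from follow-up.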

[2] = molecular target: T2, cloned human or rodent CNS receptors, channels, and transporters (PDSP panel) (Rattus norvegicus, UniProt P16257); settings: PBR, primary assay; for Inhibition 1: replicate 1; for Inhibition 2: replicate 2; for Inhibition 3: replicate 3; for Inhibition 4: replicate 4
T2 construct: expressed in transfected cells
Method in brief: as §1

[3] = molecular target: T3, cloned human or rodent CNS receptors, channels, and transporters (PDSP panel) (Homo sapiens, UniProt P18089); settings: Alpha2B, primary assay; for Mean %: mean inhibition; for Inhibition 1: replicate 1; for Inhibition 2: replicate 2; for Inhibition 3: replicate 3; for Inhibition 4: replicate 4
T3 construct: expressed in transfected cells
T3 sequence (P18089 1-450): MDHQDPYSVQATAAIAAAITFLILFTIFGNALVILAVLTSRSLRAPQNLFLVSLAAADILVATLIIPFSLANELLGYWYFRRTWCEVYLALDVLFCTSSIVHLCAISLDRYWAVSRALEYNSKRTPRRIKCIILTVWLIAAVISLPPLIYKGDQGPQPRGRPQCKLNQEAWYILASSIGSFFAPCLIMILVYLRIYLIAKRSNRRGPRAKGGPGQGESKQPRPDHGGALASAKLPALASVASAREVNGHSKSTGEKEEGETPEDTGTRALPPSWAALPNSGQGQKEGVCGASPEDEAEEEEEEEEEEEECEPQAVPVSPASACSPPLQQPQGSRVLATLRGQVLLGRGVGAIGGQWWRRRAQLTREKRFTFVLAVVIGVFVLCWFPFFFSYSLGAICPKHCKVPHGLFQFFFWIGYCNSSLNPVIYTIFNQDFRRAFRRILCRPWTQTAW
Method in brief: as §1

[4] = molecular target: T4, cloned human or rodent CNS receptors, channels, and transporters (PDSP panel) (Homo sapiens, UniProt P08912); settings: M5, primary assay; for Mean %: mean inhibition; for Inhibition 1: replicate 1; for Inhibition 2: replicate 2; for Inhibition 3: replicate 3; for Inhibition 4: replicate 4
T4 construct: expressed in transfected cells
T4 sequence (P08912 1-532): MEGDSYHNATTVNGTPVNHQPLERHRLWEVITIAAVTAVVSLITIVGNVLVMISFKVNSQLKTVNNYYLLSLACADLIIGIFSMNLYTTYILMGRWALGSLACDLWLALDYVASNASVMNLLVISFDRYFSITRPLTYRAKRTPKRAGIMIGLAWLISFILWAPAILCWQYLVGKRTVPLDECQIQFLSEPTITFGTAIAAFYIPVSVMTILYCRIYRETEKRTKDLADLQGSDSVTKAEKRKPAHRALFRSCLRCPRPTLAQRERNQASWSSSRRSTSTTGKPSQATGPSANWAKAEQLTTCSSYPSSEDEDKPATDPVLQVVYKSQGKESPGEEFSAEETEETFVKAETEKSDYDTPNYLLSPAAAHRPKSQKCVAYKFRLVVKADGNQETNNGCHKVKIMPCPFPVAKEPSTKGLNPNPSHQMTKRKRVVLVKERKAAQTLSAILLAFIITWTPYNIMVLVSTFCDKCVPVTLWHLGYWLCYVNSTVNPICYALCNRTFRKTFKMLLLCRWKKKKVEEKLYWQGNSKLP
Method in brief: as §1

[5] = molecular target: T5, cloned human or rodent CNS receptors, channels, and transporters (PDSP panel) (Homo sapiens, UniProt P21728); settings: D1, primary assay; for Mean %: mean inhibition; for Inhibition 1: replicate 1; for Inhibition 2: replicate 2; for Inhibition 3: replicate 3; for Inhibition 4: replicate 4
T5 construct: expressed in transfected cells
T5 sequence (P21728 whole entry): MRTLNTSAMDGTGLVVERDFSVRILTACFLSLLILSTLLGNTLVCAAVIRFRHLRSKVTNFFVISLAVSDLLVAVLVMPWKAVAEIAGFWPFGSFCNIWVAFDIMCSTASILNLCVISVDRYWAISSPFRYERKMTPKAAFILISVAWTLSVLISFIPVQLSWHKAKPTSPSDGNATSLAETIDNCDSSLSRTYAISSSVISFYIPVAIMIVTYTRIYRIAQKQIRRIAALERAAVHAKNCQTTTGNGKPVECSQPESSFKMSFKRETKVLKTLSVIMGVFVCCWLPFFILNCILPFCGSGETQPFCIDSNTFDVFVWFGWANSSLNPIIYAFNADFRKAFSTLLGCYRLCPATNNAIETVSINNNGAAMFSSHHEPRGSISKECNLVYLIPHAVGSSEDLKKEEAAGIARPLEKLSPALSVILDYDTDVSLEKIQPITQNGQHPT
Method in brief: as §1

[6] = molecular target: T6, cloned human or rodent CNS receptors, channels, and transporters (PDSP panel) (Homo sapiens, UniProt P28221); settings: 5-HT1D, primary assay; for Mean %: mean inhibition; for Inhibition 1: replicate 1; for Inhibition 2: replicate 2; for Inhibition 3: replicate 3; for Inhibition 4: replicate 4
T6 construct: expressed in transfected cells
T6 sequence (P28221 whole entry): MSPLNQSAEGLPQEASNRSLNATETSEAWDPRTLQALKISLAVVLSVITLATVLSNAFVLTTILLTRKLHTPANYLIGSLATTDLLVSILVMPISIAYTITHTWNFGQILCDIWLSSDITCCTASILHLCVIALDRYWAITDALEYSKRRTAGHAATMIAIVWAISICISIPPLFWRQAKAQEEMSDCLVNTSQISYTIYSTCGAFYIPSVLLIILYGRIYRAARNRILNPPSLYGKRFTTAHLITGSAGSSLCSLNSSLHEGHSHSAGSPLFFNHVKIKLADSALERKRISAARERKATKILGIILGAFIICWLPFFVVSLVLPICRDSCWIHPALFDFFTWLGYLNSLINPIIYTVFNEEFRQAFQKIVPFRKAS
Method in brief: as §1

[7] = molecular target: T7, cloned human or rodent CNS receptors, channels, and transporters (PDSP panel) (Homo sapiens, UniProt P35368); settings: Alpha1B, primary assay; for Mean %: mean inhibition; for Inhibition 1: replicate 1; for Inhibition 2: replicate 2; for Inhibition 3: replicate 3; for Inhibition 4: replicate 4
T7 construct: expressed in transfected cells
T7 sequence (P35368 1-520): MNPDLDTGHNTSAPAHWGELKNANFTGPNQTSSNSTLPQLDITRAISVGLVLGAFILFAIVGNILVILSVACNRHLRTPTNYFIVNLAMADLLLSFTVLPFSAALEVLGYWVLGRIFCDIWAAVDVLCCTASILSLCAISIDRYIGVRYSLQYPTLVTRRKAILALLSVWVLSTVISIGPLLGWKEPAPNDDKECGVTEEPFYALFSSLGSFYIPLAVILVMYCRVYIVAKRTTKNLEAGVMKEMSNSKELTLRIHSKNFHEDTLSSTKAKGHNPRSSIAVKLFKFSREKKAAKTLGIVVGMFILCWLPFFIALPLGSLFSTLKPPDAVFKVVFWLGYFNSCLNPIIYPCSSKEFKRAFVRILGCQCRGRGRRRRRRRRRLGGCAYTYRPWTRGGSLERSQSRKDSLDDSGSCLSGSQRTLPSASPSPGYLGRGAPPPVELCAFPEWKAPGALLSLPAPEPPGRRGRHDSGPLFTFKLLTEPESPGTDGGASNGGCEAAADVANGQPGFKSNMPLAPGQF
Method in brief: as §1

Molecule | Mean % [1] | Inhibition 1 [1] | Inhibition 2 [1] | Inhibition 3 [1] | Inhibition 4 [1] | Inhibition 1 [2] | Inhibition 2 [2] | Inhibition 3 [2] | Inhibition 4 [2] | Mean % [3] | Inhibition 1 [3] | Inhibition 2 [3] | Inhibition 3 [3] | Inhibition 4 [3] | Mean % [4] | Inhibition 1 [4] | Inhibition 2 [4] | Inhibition 3 [4] | Inhibition 4 [4] | Mean % [5] | other results
CC(=O)N1CCC(NC(=O)NC23CC4CC(CC(C4)C2)C3)CC1 [UNC10302683A, AR9281] | -3.62% | -3% | -3.76% | 2.67% | -10.4% | 10.97% and 6.98% | -9.87% and 57.06% | -4.95% and 7.94% | -4.51% and 19.02% | 16.32% | 9.7% | 20.78% | 26.1% | 8.7% | -4.97% | 0.06% | -4.77% | -10.3% | -4.87% | -14.57% | Inhibition 1 [5]: -3.64%; Inhibition 2 [5]: -20.64%; Inhibition 3 [5]: -32.3%; Inhibition 4 [5]: -1.7%; Mean % [6]: 6.45%; Inhibition 1 [6]: 17.8%; Inhibition 2 [6]: 3.64%; Inhibition 3 [6]: 4.06%; Inhibition 4 [6]: 0.31%; Mean % [7]: 5.33%; Inhibition 1 [7]: 32.86%; Inhibition 2 [7]: -1.86%; Inhibition 3 [7]: 1.69%; Inhibition 4 [7]: -11.37%
MDL 28170 [UNC10302675A] | 3.62% | 10.69% | 6.89% | 8.89% | -11.99% | 31.01% and 31.3% | 3.06% and 12.16% | 7.19% and 13.84% | 16.6% and 7.94% | 5.87% | 22.44% | -15.29% | -0.28% | 16.62% | -3.08% | 7.51% | -10.6% | 0.26% | -9.5% | -0.08% | Mean % ([2]; mean inhibition): 14.47% and 16.31%; Inhibition 1 [5]: 13.68%; Inhibition 2 [5]: 11.74%; Inhibition 3 [5]: -15.62%; Inhibition 4 [5]: -10.12%; Mean % [6]: 5%; Inhibition 1 [6]: 13.22%; Inhibition 2 [6]: 2.39%; Inhibition 3 [6]: 4.89%; Inhibition 4 [6]: -0.52%; Mean % [7]: -5.99%; Inhibition 1 [7]: -0.72%; Inhibition 2 [7]: -4.38%; Inhibition 3 [7]: -14.01%; Inhibition 4 [7]: -4.84%
